Reference: patent US20210255193A1, “LYSINE REACTIVE PROBES AND USES THEREOF” (The Scripps Research Institute, priority 2017, published 2021)
One block for each compound: values may come before it.

What was measured:
Test in all cases: competitive isoTOP-ABPP
[1] = biological target: T1, ABCE1 ATP-binding cassette sub-family E member 1 (Homo sapiens, UniProt P61221); settings: for isoTOP-ABPP reactivity ratio at lysine P61221_K191 / isoTOP-ABPP reactivity ratio at lysine P61221_K478 / isoTOP-ABPP ratio (R) at liganded lysine P61221_K191 / isoTOP-ABPP ratio (R) at liganded lysine P61221_K478: 50 uM, in vitro; for isoTOP-ABPP reactivity ratio at lysine P61221_K191 / isoTOP-ABPP reactivity ratio at lysine P61221_K478: 231 sol; for isoTOP-ABPP ratio (R) at liganded lysine P61221_K191 / isoTOP-ABPP ratio (R) at liganded lysine P61221_K478: sol, 231
T1 construct: isoTOP-ABPP experiments performed in cell lysates (in vitro); endogenous in cells; host or cells: soluble proteome of human cancer cell lines (MDA-MB-231, Ramos, Jurkat)
Experimental: (§1) In vitro covalent fragment treatment for isoTOP-ABPP. All compounds were made up as solutions in DMSO (100×) and were used at a final concentration of 50 μM for activated esters and 100 μM for guanidinylating agents. For each profiling sample, 0.5 ml of lysate was treated with 5 μl of the 100× compound stock solution or 5 μl of DMSO. Samples were treated with activated esters for
(§2) STP-alkyne labeling and click chemistry. For concentration-dependent reactivity measurements by isoTOP-ABPP, 0.5 ml proteome aliquots were treated at ambient temperature with 1 mM STP-alkyne 1 (5 μl of 100 mM stock in DMSO) and 0.1 mM STP alkyne 1 (5 μl of 10 mM stock in DMSO), respectively. For competitive isoTOP-ABPP, after in vitro fragment treatment (detailed above), the samples were labeled for 1 h at ambient temperature with 0.1 mM STP-alkyne 1 (5 μl of 10 mM stock in DMSO). Samples were conjugated by copper-mediated azide-alkyne cycloaddition (CuAAC) to either the light (1 mM STP-alkyne or fragment treated) or heavy (0.1 mM STP-alkyne or DMSO treated) TEV tags (10 μl of 5 mM stocks in DMSO, final concentration=100 μM) using tris(2-carboxyethyl)phosphine hydrochloride
(§3) R value calculation and processing. The ratios of light and heavy MS1 peaks for each unique peptide were quantified with a CIMAGE software using default parameters (3 MS1 acquisitions per peak and signal to noise threshold set to 2.5). For reactivity measurements by isoTOP-ABPP, the R value was calculated from the ratio of MS1 peak areas, comparing the 1 mM STP alkyne sample (light TEV tag) with the 0.1 mM STP alkyne sample (heavy TEV tag). For competitive isoTOP-ABPP, the R value was calculated from the ratio of MS1 peak areas, comparing the DMSO treated sample (heavy TEV tag) with the compound treated sample (light TEV tag). […] Ratios for unique peptide entries are calculated for each experiment; overlapping peptides with the same modified lysine (for example, different charge states, MudPIT chromatographic steps or tryptic termini) are grouped together and the median ratio is reported as the final ratio (R). The peptide ratios reported by CIMAGE were further filtered to ensure the removal or correction of low-quality ratios in each individual data set. The quality filters applied were the following: removal of half tryptic peptides; for ratios with high standard deviations from the median (90% of the median or above) the lowest ratio was taken instead of the median; removal of peptides with R=20 and only a single MS2 event triggered during the elution of the parent ion; manual annotation of all the peptides with ratios of 20, removing any peptides with low quality elution profiles that remained after the previous curation steps (only done for competitive isoTOP-ABPP).
(§4) Cross-data processing for fragment screening. For compound treated samples, biological replicates of the same condition were averaged, if the standard deviation was below 60% of the mean; otherwise, for lysines with at least one R value <4 for a particular compound, the lowest value of the ratio set was taken. For lysines, where all R values for a particular compound were ≥4, the average was reported. For peptides containing several possible modified lysines, the lysine with the highest number of quantification events was used for analysis and the remaining, redundant peptides were reported as alternative modification sites. Peptides included in the aggregate dataset (those used for further bioinformatics and statistical analyses) were required to have been quantified in 2 experiments for competitive isoTOP-ABPP. Lysines were categorized as liganded, if they had at least one ratio R≥4 (hit fragments). For liganded lysines with R=20 for all liganding events, lysines were required to have been quantified with R=20 in two separate experiments and were further required to have been quantified with R<20 in one additional experiment.

[2] = biological target: T2, AGFG1 Arf-GAP domain and FG repeat-containing protein 1 (Homo sapiens, UniProt P52594); type: binding; parameters: key to isoTOP-ABPP reactivity ratio at lysine P52594_K134: R = MS1 peak area ratio, DMSO (heavy) / compound-treated (light); settings: for isoTOP-ABPP reactivity ratio at lysine P52594_K134: 231 sol
T2 construct: isoTOP-ABPP experiments performed in cell lysates (in vitro); endogenous in cells; host or cells: soluble proteome of human cancer cell lines (MDA-MB-231, Ramos, Jurkat)
T2 sequence (P52594 1-562): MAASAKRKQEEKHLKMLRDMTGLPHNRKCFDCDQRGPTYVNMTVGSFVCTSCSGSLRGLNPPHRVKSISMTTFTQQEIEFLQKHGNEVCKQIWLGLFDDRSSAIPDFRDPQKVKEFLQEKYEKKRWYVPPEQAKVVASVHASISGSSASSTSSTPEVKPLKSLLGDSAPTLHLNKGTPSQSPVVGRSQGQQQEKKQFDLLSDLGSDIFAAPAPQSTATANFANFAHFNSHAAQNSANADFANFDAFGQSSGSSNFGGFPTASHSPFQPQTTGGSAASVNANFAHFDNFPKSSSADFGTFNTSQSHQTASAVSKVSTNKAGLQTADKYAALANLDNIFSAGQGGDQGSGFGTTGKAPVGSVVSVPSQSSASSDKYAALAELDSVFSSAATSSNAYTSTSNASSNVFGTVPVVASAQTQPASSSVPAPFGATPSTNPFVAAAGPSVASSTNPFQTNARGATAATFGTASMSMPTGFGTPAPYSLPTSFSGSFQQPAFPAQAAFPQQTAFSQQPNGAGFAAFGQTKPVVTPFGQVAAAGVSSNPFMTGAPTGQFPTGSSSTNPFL
Experimental: as §1, §2, §3, §4

[3] = biological target: T3, HDHD3 Haloacid dehalogenase-like hydrolase domain-containing protein 3 (Homo sapiens, UniProt Q9BSH5); type: binding; parameters: key to isoTOP-ABPP reactivity ratio at lysine Q9BSH5_K15: R = MS1 peak area ratio, DMSO (heavy) / compound-treated (light); settings: for isoTOP-ABPP reactivity ratio at lysine Q9BSH5_K15 / isoTOP-ABPP ratio (R) at liganded lysine Q9BSH5_K15: 50 uM, in vitro; for isoTOP-ABPP reactivity ratio at lysine Q9BSH5_K15: 231 sol; for isoTOP-ABPP ratio (R) at liganded lysine Q9BSH5_K15: sol, 231
T3 construct: isoTOP-ABPP experiments performed in cell lysates (in vitro); endogenous in cells; host or cells: soluble proteome of human cancer cell lines (MDA-MB-231; Ramos and Jurkat also prepared)
T3 sequence (Q9BSH5 1-251): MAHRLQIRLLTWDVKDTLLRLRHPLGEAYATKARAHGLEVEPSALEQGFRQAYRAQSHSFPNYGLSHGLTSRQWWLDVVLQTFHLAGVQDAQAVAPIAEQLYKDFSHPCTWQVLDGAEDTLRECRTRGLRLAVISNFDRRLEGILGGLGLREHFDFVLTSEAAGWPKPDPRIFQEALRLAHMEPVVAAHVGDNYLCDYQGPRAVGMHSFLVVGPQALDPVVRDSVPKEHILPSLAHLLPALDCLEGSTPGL
Experimental: as §1, §2, §3, §4

isoTOP-ABPP reactivity ratio at lysine P61221_K191 [1]: 1.4
isoTOP-ABPP reactivity ratio at lysine P61221_K478 [1]: 1.3
isoTOP-ABPP reactivity ratio at lysine P52594_K134 ([2]; 50 uM, in vitro): 2.2
isoTOP-ABPP reactivity ratio at lysine Q9BSH5_K15 [3]: 3.4
Compound: O=C(CCc1coc2cc(F)ccc2c1=O)Oc1c(F)c(F)c(F)c(F)c1F [fragment 26, Pentafluorophenyl 3-(7-fluoro-4-oxo-4H-chromen-3-yl)propanoate]

isoTOP-ABPP ratio, lysine P61221_K191 ([1]; 50 uM_231_sol_in vitro): 1.0
isoTOP-ABPP ratio, lysine P61221_K478 ([1]; 50 uM_231_sol_in vitro): 0.9
isoTOP-ABPP ratio, lysine P52594_K134 ([2]; 50 uM_231_sol_in vitro): 0.9
isoTOP-ABPP ratio, lysine Q9BSH5_K15 ([3]; 50 uM_231_sol_in vitro): 0.8
Compound: NC(=O)c1cc(C(F)(F)F)cc(C(F)(F)F)c1 [fragment 51, reference compound]

isoTOP-ABPP reactivity ratio at lysine P61221_K478 [1]: 2.1
isoTOP-ABPP reactivity ratio at lysine P52594_K134 ([2]; 50 uM, in vitro): 1.5
isoTOP-ABPP reactivity ratio at lysine Q9BSH5_K15 [3]: 2.3
Compound: O=C(CN1C(=O)c2ccccc2C1=O)Oc1c(F)c(F)c(F)c(F)c1F [fragment 27, Pentafluorophenyl 2-(1,3-dioxoisoindolin-2-yl)acetate]

Compound: Cn1cc(CC(=O)Oc2ccc([N+](=O)[O-])cc2[N+](=O)[O-])c2ccccc21 [fragment 32, 2,4-Dinitrophenyl 2-(1-methyl-1H-indol-3-yl)acetate]
isoTOP-ABPP reactivity ratio at lysine P61221_K191 [1]: 1.3
isoTOP-ABPP reactivity ratio at lysine P61221_K478 [1]: 1.2
isoTOP-ABPP reactivity ratio at lysine P52594_K134 ([2]; 50 uM, in vitro): 19.9
isoTOP-ABPP reactivity ratio at lysine Q9BSH5_K15 [3]: 6.7

Compound: O=C(CCc1ccc2c(c1)OCO2)Oc1ccc([N+](=O)[O-])cc1[N+](=O)[O-] [fragment 45, 2,4-Dinitrophenyl 3-(benzo[d][1,3]dioxol-5-yl)propanoate]
isoTOP-ABPP ratio, lysine P61221_K191 ([1]; 50 uM_231_sol_in vitro): 1.1
isoTOP-ABPP ratio, lysine P61221_K478 ([1]; 50 uM_231_sol_in vitro): 1.5
isoTOP-ABPP ratio, lysine P52594_K134 ([2]; 50 uM_231_sol_in vitro): 20.0
isoTOP-ABPP ratio, lysine Q9BSH5_K15 ([3]; 50 uM_231_sol_in vitro): 3.4

Compound: O=C(CCc1coc2cc(F)ccc2c1=O)Oc1ccc([N+](=O)[O-])cc1[N+](=O)[O-] [fragment 36, 2,4-Dinitrophenyl 3-(7-fluoro-4-oxo-4H-chromen-3-yl)propanoate]
isoTOP-ABPP ratio (R) at liganded lysine P61221_K191 [1]: 1.0
isoTOP-ABPP ratio (R) at liganded lysine P61221_K478 [1]: 1.1
isoTOP-ABPP ratio (R) at liganded lysine P52594_K134 ([2]; 50 uM, in vitro, sol, 231): 20.0
isoTOP-ABPP ratio (R) at liganded lysine Q9BSH5_K15 [3]: 10.4

isoTOP-ABPP ratio, lysine P61221_K191 ([1]; 100 uM_231_sol_in vitro): 20.0
isoTOP-ABPP ratio, lysine P61221_K478 ([1]; 100 uM_231_sol_in vitro): 1.0
isoTOP-ABPP ratio, lysine P52594_K134 ([2]; 100 uM_231_sol_in vitro): 0.8
isoTOP-ABPP ratio, lysine Q9BSH5_K15 ([3]; 100 uM_231_sol_in vitro): 3.5
Compound: COC(=O)NC(=NC(=O)OCC1c2ccccc2-c2ccccc21)n1cccn1 [fragment 49, N-Methoxycarbonyl-N′-9-fluorenylmethoxycarbonyl-pyrazole-1-carboxamidine]

Compound: O=C(Oc1ccc([N+](=O)[O-])cc1[N+](=O)[O-])c1ccc2ccccc2n1 [fragment 35, 2,4-Dinitrophenyl quinoline-2-carboxylate]
isoTOP-ABPP ratio (R) at liganded lysine P61221_K191 [1]: 1.1
isoTOP-ABPP ratio (R) at liganded lysine P61221_K478 [1]: 1.1
isoTOP-ABPP ratio (R) at liganded lysine Q9BSH5_K15 [3]: 7.0
